Measured values reported in patent US9011853B2, “B7-H4 fusion proteins and methods of use thereof” (Amplimmune, Inc., priority 2009, dated 2015).

Legend:
[1] = Clearance from circulation; type: in vivo; settings: compared with control IgG
[2] = tested on: CD4^+CD62L^+ naïve T cells; assay: In vitro induction of iTreg cells, FACS for FoxP3/CD25; type: cell-based, mouse; settings: SJL naïve T cells, 10 ng/mL TGF-β and 50 U/mL IL-2; 0, 1, 5 or 10 μg/mL (control IgG 10 μg/ml)
Procedure: CD4^+CD62L^+ naïve T cells were first labeled with CFSE (5 μM) for 10 min at room temperature. The dye was quenched by the addition of 0.5 volumes of ice-cold fetal calf serum. The cells were incubated on ice for 5 min followed by centrifugation to collect the cell pellet. The cells were washed 2 more times in HL-1 culture media. The cells were then cultured in the presence of TGF-β (10 ng/mL) and IL-2 (10, 50, 100 U/mL) for 3 days before intracellular staining with anti-FoxP3 APC. FACS analysis was conducted to detect the FoxP3^+, in vitro expanded iTreg cells.
Therefore, it was next examined if B7-H4-Ig treatment of naïve CD4^+CD62L^+ T cells in the presence of inducible Treg (iTreg) cell-promoting conditions would results in an increase in the numbers of CD4^+CD25^+FoxP3^+ iTreg cells. First the in vitro iTreg induction culture conditions were optimized to allow for experimental conditions to assess what additional effect, if any, B7-H4-Ig has on iTreg induction. CD4^+ T cells were isolated from female SJL mice. Purified mouse CD4^+CD62L^+ T cells were first labeled with CSFE and induced to iTreg cells in the presence of TGF-β (10 ng/mL) and IL-2 at concentrations of 0, 50 or 100 U/mL. FACS analysis was performed 3 days later to detect FoxP3 expression and CFSE content. A FoxP3 positive and CFSE diluted cell population was detected when using 100 U/mL of IL-2 for iTreg differentiation. […]

[3] = tested on: CD4^+CD62L^+ naïve T cells; assay: Mouse Th17 assay, IL-17A ELISA; type: cell-based; settings: 20, 10, 5, 2.5, and 1.25 μg/mL (FIGS. 57, 58)
Procedure: CD4^+CD62L^+ naïve T cells were isolated from BALB/c mice as in the above examples, and activated by anti-CD3 and anti-CD28 bound beads in the presence of Th17 differntiation cocktail (TGF-β1 (10 ng/mL), IL-6 (50 ng/mL), IL-23 (4 ng/mL), anti-IL-4 (10 μg/mL), anti-IFN-γ (5 μg/mL) and anti-IL-2 (5 μg/mL)). Murine B7-H4-Ig (10 μg/mL) or retinoic acid (RA) (10 μM) was added to the cultures on day 0, day 1, or day 2 of the 4 day culture. IL-17A levels were measured by ELISA at the end of the 4 day culture.
The Th17 assay is 4 days in duration. In order to determine when B7-H4-Ig is acting, the Th17 assay was performed with the addition of 10 μg/mL of murine B7-H4-Ig, 10 μg/mL of mouse IgG control, or […] retinoic acid on Day 0, Day 1, or Day 2.
Peripheral T cells were obtained from spleens and inguinal lymph nodes of 6-9 week old BALB/c mice by mechanical disruption through a cell strainer followed by red blood cell (RBC) lysis.
Naïve helper T cells (CD4^+CD62L^+) were obtained using the Miltenyi Biotec microbead system. CD4^+ cells are enriched by negative selection, and followed by a positive selection of CD62L^+. In some experiments CD25+ cells were also depleted.
After selection, cells are activated in vitro with anti-CD3/CD28 beads at a 1:1 cell:bead ratio in the presence of the TH17 differentiation cocktail (TGF-β1 (10 ng/ml), IL-6 (50 ng/ml), IL-23 (4 ng/ml), anti-IL-2 (5 μg/ml), anti-IL-4 (10 μg/ml), and anti-IFN-γ (5 μg/ml)). Murine B7-H4-Ig is added at a final concentration of 1.25-20 μg/ml. Retinoic acid (RA) is used as positive control and mouse IgG is used as a negative control.
After 4 days of culture, cultures are spun down and supernatants are harvested and stored at <−65° C. until analyzed for IL-17A levels by ELISA.

Substance | clearance from circulation [1] | percentage of FoxP3+CD25+ iTregs [2] | activity on mouse cells in the Th17 assay (IL-17A) [3]
B7-H4-Ig: B7-H4 extracellular domain fused to Ig Fc; bare label is the human protein in Example 3, murine protein in Examples 1, 2, 5, 7-11 | cleared from circulation more rapidly than control IgG | increased the percentage of FoxP3^+CD25^+ iTregs in a dose-dependent manner | 
Human B7-H4-Ig: human B7-H4 extracellular domain fused to hinge, CH2 and CH3 regions of human immunoglobulin Cγ1 chain; representative SEQ ID NOs:114-137 |  |  | active
